Measurements reported in patent publication US20220106304A1, “Transcription Factor BRN2 Inhibitory Compounds as Therapeutics and Methods for Their Use” (The University of British Columbia, priority 2018, published 2022).

Legend:
[1] = Liver microsome metabolic stability, MLM; type: in vitro ADME; details: MLM (single value or second of two), 1 μM compound, 0.25 mg/mL protein; for Met Stab % (60 mins HLM/MLM): percent remaining at 60 min, 1 mM NADPH; for half-life at 1 µM: mouse, liver microsomes, pH 7.4, read-out: T1/2 in (mins HLM/MLM)
In short: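 Compound (1 μM) incubated at 37 °C with mouse or human liver microsomes (0.25 mg/mL) in 50 mM phosphate pH 7.4 with 1 mM NADPH; samples quenched at 0–60 min. Parent loss by LC-MS/MS gives t½ (0.693/k) and CL'int scaled by 45 mg protein/g liver.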

BRN2 = target: T1, BRN2 (Homo sapiens, UniProt P20265); assay: BLI binding
T1 sequence (P20265 1-443): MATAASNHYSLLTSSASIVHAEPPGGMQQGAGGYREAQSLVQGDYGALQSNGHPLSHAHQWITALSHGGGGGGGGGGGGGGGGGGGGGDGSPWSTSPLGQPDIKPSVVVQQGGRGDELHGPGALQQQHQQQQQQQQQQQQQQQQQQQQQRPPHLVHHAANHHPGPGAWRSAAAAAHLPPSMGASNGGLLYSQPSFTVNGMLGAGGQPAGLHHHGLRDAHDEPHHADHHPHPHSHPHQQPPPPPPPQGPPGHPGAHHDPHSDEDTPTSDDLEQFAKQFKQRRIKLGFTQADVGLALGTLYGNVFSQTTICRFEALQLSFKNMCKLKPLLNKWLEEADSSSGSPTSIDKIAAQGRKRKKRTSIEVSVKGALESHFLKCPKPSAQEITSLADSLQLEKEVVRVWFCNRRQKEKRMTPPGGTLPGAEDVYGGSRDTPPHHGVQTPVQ

Row | Compound | Met Stab % (60 mins HLM/MLM) [1] | half-life at 1 µM [1] | BLI binding (BRN2)
1 | Clc1cc2cc(-c3csc(-c4ccc[nH]4)n3)oc2cc1Cl [VPC-18-142] | 17% | 26 min | binding
2 | FC(F)(F)c1ccc2cc(-c3csc(-c4ccco4)n3)oc2c1 [VPC-18-51, 2-(Furan-2-yl)-4-(6-(trifluoromethyl)benzofuran-2-yl)thiazole] | 7% | 16 min | binding
